Experimental data reported in patent publication US20260125382A1, “COMPOUNDS FOR INHIBITING OR DEGRADING CDK2 AND/OR CDK9 AND MEDICINAL USE THEREOF” (KOREA RESEARCH INSTITUTE OF CHEMICAL TECHNOLOGY, priority 2022, published 2026).

Tests used:
CDK2 = biological target: T1, CDK2 (Homo sapiens, UniProt P24941); experiment: CDK protein degradation activity (Western blotting), CDK2; assay type: cell-based; settings: MDA-MB-231 cells, 16 hours, Western blot
T1 construct: endogenous in cells; host or cells: MDA-MB-231
Outline: (§1)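 MDA-MB-231 cells treated 16 h with compound at 100 nM, 1 μM or 10 μM, with DMSO as control. Lysates run on SDS-PAGE and immunoblotted for CDK2, CDK9 and tubulin; band levels quantified by densitometry.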

CDK2/cyclin A = biological target: T2, CDK2/cyclin A (Homo sapiens, UniProt P24941); experiment: CDK protein inhibition, KINOMEscan (Eurofins), CDK2/cyclin A; assay type: binding; settings: 1 μM
T2 construct: purchased Eurofins Scientific

CDK9 = biological target: T3, CDK9 (Homo sapiens, UniProt P50750); experiment: CDK protein degradation activity (Western blotting), CDK9; assay type: cell-based; settings: MDA-MB-231 cells, 16 hours, Western blot
T3 construct: endogenous in cells; host or cells: MDA-MB-231
Outline: as §1

T3 sequence (P50750 whole entry): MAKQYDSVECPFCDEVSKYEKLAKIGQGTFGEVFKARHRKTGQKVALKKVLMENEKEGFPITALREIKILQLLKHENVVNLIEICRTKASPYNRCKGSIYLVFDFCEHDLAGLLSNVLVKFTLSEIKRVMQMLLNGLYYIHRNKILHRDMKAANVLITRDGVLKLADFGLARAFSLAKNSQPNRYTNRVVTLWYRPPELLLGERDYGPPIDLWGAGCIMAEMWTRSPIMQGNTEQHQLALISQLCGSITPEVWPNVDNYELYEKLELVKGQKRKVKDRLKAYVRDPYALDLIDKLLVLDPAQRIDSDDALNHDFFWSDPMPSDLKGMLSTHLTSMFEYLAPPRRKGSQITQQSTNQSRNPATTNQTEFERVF

| Compound | CDK2/cyclin A inhibition (%) (at concentration of 1 μM) (CDK2/cyclin A) | other results |
| --- | --- | --- |
| Cc1cccc(C(=O)N[C@H]2C[C@H](n3cnc4c(NCC5CCN(C(=O)CCCCCNC(=O)CNc6ccc7c(c6)C(=O)N([C@@H]6CCC(=O)NC6=O)C7=O)CC5)ncnc43)C2)n1 (stereo in doubt) [Compound 61, N-((1r,3r)-3-(6-(((1-(6-(2-((2-(2,6-dioxopiperidin-3-yl)-1,3-dioxoisoindolin-5-yl)amino)acetamido)hexanoyl)piperidin-4-yl)methyl)amino)-9H-purin-9-yl)cyclobutyl)-6-methylpicolinamide] | 84% | Enzyme degradation CDK2 (% remaining) @ 0.1 μM (CDK2): 100%; Enzyme degradation CDK2 (% remaining) @ 1 μM (CDK2): 100%; Enzyme degradation CDK2 (% remaining) @ 10 μM (CDK2): 40%; Enzyme degradation CDK9 (% remaining) @ 0.1 μM (CDK9): 80%; Enzyme degradation CDK9 (% remaining) @ 1 μM (CDK9): 50%; Enzyme degradation CDK9 (% remaining) @ 10 μM (CDK9): 10% |
| Cc1cccc(C(=O)NC2CC(n3cnc4c(NC5CCN(C(=O)CCCCCNC(=O)COc6ccc7c(c6)C(=O)N([C@@H]6CCC(=O)NC6=O)C7=O)CC5)ncnc43)C2)n1 (some centres unmarked) [Compound 3, N-((1r,3r)-3-(6-((1-(6-(2-((2-(2,6-dioxopiperidin-3-yl)-1,3-dioxoisoindolin-5-yl)oxy)acetamido)hexanoyl)piperidin-4-yl)amino)-9H-purin-9-yl)cyclobutyl)-6-methylpicolinamide] | 84% | – |
| Cc1cccc(C(=O)NC2CC(n3cnc4c(NC5CCN(C(=O)CCCCCNc6ccc7c(c6)C(=O)N([C@@H]6CCC(=O)NC6=O)C7=O)CC5)ncnc43)C2)n1 (some centres unmarked) [Compound 5, N-((1r,3r)-3-(6-((1-(6-((2-(2,6-dioxopiperidin-3-yl)-1,3-dioxoisoindolin-5-yl)amino)hexanoyl)piperidin-4-yl)amino)-9H-purin-9-yl)cyclobutyl)-6-methylpicolinamide] | 91% | – |
| Cc1cccc(C(=O)NC2CC(n3cnc4c(NC5CCN(C(=O)CCCCCNc6cccc7c6C(=O)N([C@@H]6CCC(=O)NC6=O)C7=O)CC5)ncnc43)C2)n1 (some centres unmarked) [Compound 6, N-((1r,3r)-3-(6-((1-(6-((2-(2,6-dioxopiperidin-3-yl)-1,3-dioxoisoindolin-4-yl)amino)hexanoyl)piperidin-4-yl)amino)-9H-purin-9-yl)cyclobutyl)-6-methylpicolinamide] | 88% | – |
| Cc1cccc(C(=O)NC2CC(n3cnc4c(NC5CCN(C(=O)COCCOCCNC(=O)COc6cccc7c6C(=O)N([C@H]6CCC(=O)NC6=O)C7=O)CC5)ncnc43)C2)n1 (some centres unmarked) [Compound 8, N-((1s,3s)-3-(6-((1-(2-(2-(2-(2-((2-(2,6-dioxopiperidin-3-yl)-1,3-dioxoisoindolin-4-yl)oxy)acetamido)ethoxy)ethoxy)acetyl)piperidin-4-yl)amino)-9H-purin-9-yl)cyclobutyl)-6-methylpicolinamide] | 89% | – |
| Cc1cccc(C(=O)NC2CC(n3cnc4c(NC5CCN(C(=O)COCCOCCNC(=O)CNc6ccc7c(c6)C(=O)N([C@H]6CCC(=O)NC6=O)C7=O)CC5)ncnc43)C2)n1 (some centres unmarked) [Compound 9, N-((1s,3s)-3-(6-((1-(2-(2-(2-(2-((2-(2,6-dioxopiperidin-3-yl)-1,3-dioxoisoindolin-5-yl)amino)acetamido)ethoxy)ethoxy)acetyl)piperidin-4-yl)amino)-9H-purin-9-yl)cyclobutyl)-6-methylpicolinamide] | 92% | – |
| Cc1cccc(C(=O)NC2CC(n3cnc4c(NCC5CCN(C(=O)CCCCCNC(=O)CNc6cccc7c6C(=O)N([C@@H]6CCC(=O)NC6=O)C7=O)CC5)ncnc43)C2)n1 (some centres unmarked) [Compound 62, N-((1r,3r)-3-(6-(((1-(6-(2-((2-(2,6-dioxopiperidin-3-yl)-1,3-dioxoisoindolin-4-yl)amino)acetamido)hexanoyl)piperidin-4-yl)methyl)amino)-9H-purin-9-yl)cyclobutyl)-6-methylpicolinamide] | 89% | – |
| Cc1cccc(C(=O)NC2CC(n3cnc4c(NCC5CCN(C(=O)CCCCCNC(=O)COc6ccc7c(c6)C(=O)N([C@@H]6CCC(=O)NC6=O)C7=O)CC5)ncnc43)C2)n1 (some centres unmarked) [Compound 63, N-((1r,3r)-3-(6-(((1-(6-(2-((2-(2,6-dioxopiperidin-3-yl)-1,3-dioxoisoindolin-5-yl)oxy)acetamido)hexanoyl)piperidin-4-yl)methyl)amino)-9H-purin-9-yl)cyclobutyl)-6-methylpicolinamide] | 83% | – |
| Cc1cccc(C(=O)NC2CC(n3cnc4c(NCC5CCN(C(=O)CCCCCNC(=O)COc6cccc7c6C(=O)N([C@@H]6CCC(=O)NC6=O)C7=O)CC5)ncnc43)C2)n1 (some centres unmarked) [Compound 64, N-((1r,3r)-3-(6-(((1-(6-(2-((2-(2,6-dioxopiperidin-3-yl)-1,3-dioxoisoindolin-4-yl)oxy)acetamido)hexanoyl)piperidin-4-yl)methyl)amino)-9H-purin-9-yl)cyclobutyl)-6-methylpicolinamide] | 85% | – |
| Cc1cccc(C(=O)NC2CC(n3cnc4c(NCC5CCN(C(=O)CCCCCNc6cccc7c6C(=O)N([C@@H]6CCC(=O)NC6=O)C7=O)CC5)ncnc43)C2)n1 (some centres unmarked) [Compound 66, N-((1r,3r)-3-(6-(((1-(6-((2-(2,6-dioxopiperidin-3-yl)-1,3-dioxoisoindolin-4-yl)amino)hexanoyl)piperidin-4-yl)methyl)amino)-9H-purin-9-yl)cyclobutyl)-6-methylpicolinamide] | 78% | – |
| N-((1s,3s)-3-(6-((4-(4-(3-(4-(1-(2-(2,6-dioxopiperidin-3-yl)-1,3-dioxoisoindolin-5-yl)azetidin-3-carbonyl)piperazin-1-yl)propyl)piperidin-1-yl)phenyl)amino)-9H-purin-9-yl)cyclobutyl)-2-phenylacetamide [Compound 366] | – | Enzyme degradation CDK2 (% remaining) @ 0.1 μM (CDK2): 20%; Enzyme degradation CDK2 (% remaining) @ 1 μM (CDK2): 0%; Enzyme degradation CDK2 (% remaining) @ 10 μM (CDK2): 0%; Enzyme degradation CDK9 (% remaining) @ 0.1 μM (CDK9): 10/10/10%; Enzyme degradation CDK9 (% remaining) @ 1 μM (CDK9): 10/10/10%; Enzyme degradation CDK9 (% remaining) @ 10 μM (CDK9): 10/10/10% |

Now from value to compound, other results behind:

| CDK2/cyclin A inhibition (%) (at concentration of 1 μM) (CDK2/cyclin A) | Compound | other results |
| --- | --- | --- |
| 77% | Cc1cccc(C(=O)NC2CC(n3cnc4c(NC5CCN(C(=O)CCCCCNC(=O)CNc6cccc7c6C(=O)N([C@@H]6CCC(=O)NC6=O)C7=O)CC5)ncnc43)C2)n1 (some centres unmarked) [Compound 1, N-((1r,3r)-3-(6-((1-(6-(2-((2-(2,6-dioxopiperidin-3-yl)-1,3-dioxoisoindolin-4-yl)amino)acetamido)hexanoyl)piperidin-4-yl)amino)-9H-purin-9-yl)cyclobutyl)-6-methylpicolinamide] | – |
| 84% | Cc1cccc(C(=O)NC2CC(n3cnc4c(NCC5CCN(C(=O)CCCCCNC(=O)CNc6cccc7c6C(=O)N([C@@H]6CCC(=O)NC6=O)C7=O)CC5)ncnc43)C2)n1 (some centres unmarked) [Compound 2, N-((1r,3r)-3-(6-(((1-(6-(2-((2-(2,6-dioxopiperidin-3-yl)-1,3-dioxoisoindolin-4-yl)amino)acetamido)hexanoyl)piperidin-4-yl)methyl)amino)-9H-purin-9-yl)cyclobutyl)-6-methylpicolinamide] | – |
| 84% | Cc1cccc(C(=O)NC2CC(n3cnc4c(NC5CCN(C(=O)CCCCCNC(=O)COc6cccc7c6C(=O)N([C@@H]6CCC(=O)NC6=O)C7=O)CC5)ncnc43)C2)n1 (some centres unmarked) [Compound 4, N-((1r,3r)-3-(6-((1-(6-(2-((2-(2,6-dioxopiperidin-3-yl)-1,3-dioxoisoindolin-4-yl)oxy)acetamido)hexanoyl)piperidin-4-yl)amino)-9H-purin-9-yl)cyclobutyl)-6-methylpicolinamide] | – |
| 94% | Cc1cccc(C(=O)NC2CC(n3cnc4c(NC5CCN(C(=O)COCCOCCNC(=O)COc6ccc7c(c6)C(=O)N([C@H]6CCC(=O)NC6=O)C7=O)CC5)ncnc43)C2)n1 (some centres unmarked) [Compound 7, N-((1s,3s)-3-(6-((1-(2-(2-(2-(2-((2-(2,6-dioxopiperidin-3-yl)-1,3-dioxoisoindolin-5-yl)oxy)acetamido)ethoxy)ethoxy)acetyl)piperidin-4-yl)amino)-9H-purin-9-yl)cyclobutyl)-6-methylpicolinamide] | – |
| 90% | Cc1cccc(C(=O)NC2CC(n3cnc4c(NC5CCN(C(=O)COCCOCCNC(=O)CNc6cccc7c6C(=O)N([C@H]6CCC(=O)NC6=O)C7=O)CC5)ncnc43)C2)n1 (some centres unmarked) [Compound 10, N-((1s,3s)-3-(6-((1-(2-(2-(2-(2-((2-(2,6-dioxopiperidin-3-yl)-1,3-dioxoisoindolin-4-yl)amino)acetamido)ethoxy)ethoxy)acetyl)piperidin-4-yl)amino)-9H-purin-9-yl)cyclobutyl)-6-methylpicolinamide] | – |
| 78% | Cc1cccc(C(=O)NC2CC(n3cnc4c(NC5CCN(C(=O)COCCOCCNc6ccc7c(c6)C(=O)N([C@H]6CCC(=O)NC6=O)C7=O)CC5)ncnc43)C2)n1 (some centres unmarked) [Compound 11, N-((1s,3s)-3-(6-((1-(2-(2-(2-((2-(2,6-dioxopiperidin-3-yl)-1,3-dioxoisoindolin-5-yl)amino)ethoxy)ethoxy)acetyl)piperidin-4-yl)amino)-9H-purin-9-yl)cyclobutyl)-6-methylpicolinamide] | – |
| 86% | Cc1cccc(C(=O)NC2CC(n3cnc4c(NC5CCN(C(=O)COCCOCCNc6cccc7c6C(=O)N([C@H]6CCC(=O)NC6=O)C7=O)CC5)ncnc43)C2)n1 (some centres unmarked) [Compound 12, N-((1s,3s)-3-(6-((1-(2-(2-(2-((2-(2,6-dioxopiperidin-3-yl)-1,3-dioxoisoindolin-4-yl)amino)ethoxy)ethoxy)acetyl)piperidin-4-yl)amino)-9H-purin-9-yl)cyclobutyl)-6-methylpicolinamide] | – |
